According to patent US12152038B2, “Vasopressin receptor antagonists and products and methods related thereto” (Neumora Therapeutics, Inc., priority 2017, dated 2024):
Read-outs that look alike come from different tables or passages of the source.

Assays:
[1] = molecular target: T1, MDR1 (P-glycoprotein) (Homo sapiens, UniProt P08183); test: MDR1-MDCK permeability and efflux assay (Papp, efflux ratio, effective efflux ratio); format: in vitro ADME; details: for Papp AB MDR1 / Papp A→B at 1 h, 10 μM: A->B; for EER (Effective Efflux Ratio): ER(MDR1-MDCK)/ER(wild-type MDCK); for ER MDR1 (Efflux Ratio): Papp B>A/Papp A>B; for efflux ratio at 1 h, 10 μM / Papp A→B at 1 h, 10 μM: dog; for Papp A→B at 1 h, 10 μM: pH 7.4, read-out: Papp AB MDR1
T1 construct: host or cells: MDCK (MDR1-MDCK; wild-type MDCK as comparator)
T1 sequence (P08183 whole entry): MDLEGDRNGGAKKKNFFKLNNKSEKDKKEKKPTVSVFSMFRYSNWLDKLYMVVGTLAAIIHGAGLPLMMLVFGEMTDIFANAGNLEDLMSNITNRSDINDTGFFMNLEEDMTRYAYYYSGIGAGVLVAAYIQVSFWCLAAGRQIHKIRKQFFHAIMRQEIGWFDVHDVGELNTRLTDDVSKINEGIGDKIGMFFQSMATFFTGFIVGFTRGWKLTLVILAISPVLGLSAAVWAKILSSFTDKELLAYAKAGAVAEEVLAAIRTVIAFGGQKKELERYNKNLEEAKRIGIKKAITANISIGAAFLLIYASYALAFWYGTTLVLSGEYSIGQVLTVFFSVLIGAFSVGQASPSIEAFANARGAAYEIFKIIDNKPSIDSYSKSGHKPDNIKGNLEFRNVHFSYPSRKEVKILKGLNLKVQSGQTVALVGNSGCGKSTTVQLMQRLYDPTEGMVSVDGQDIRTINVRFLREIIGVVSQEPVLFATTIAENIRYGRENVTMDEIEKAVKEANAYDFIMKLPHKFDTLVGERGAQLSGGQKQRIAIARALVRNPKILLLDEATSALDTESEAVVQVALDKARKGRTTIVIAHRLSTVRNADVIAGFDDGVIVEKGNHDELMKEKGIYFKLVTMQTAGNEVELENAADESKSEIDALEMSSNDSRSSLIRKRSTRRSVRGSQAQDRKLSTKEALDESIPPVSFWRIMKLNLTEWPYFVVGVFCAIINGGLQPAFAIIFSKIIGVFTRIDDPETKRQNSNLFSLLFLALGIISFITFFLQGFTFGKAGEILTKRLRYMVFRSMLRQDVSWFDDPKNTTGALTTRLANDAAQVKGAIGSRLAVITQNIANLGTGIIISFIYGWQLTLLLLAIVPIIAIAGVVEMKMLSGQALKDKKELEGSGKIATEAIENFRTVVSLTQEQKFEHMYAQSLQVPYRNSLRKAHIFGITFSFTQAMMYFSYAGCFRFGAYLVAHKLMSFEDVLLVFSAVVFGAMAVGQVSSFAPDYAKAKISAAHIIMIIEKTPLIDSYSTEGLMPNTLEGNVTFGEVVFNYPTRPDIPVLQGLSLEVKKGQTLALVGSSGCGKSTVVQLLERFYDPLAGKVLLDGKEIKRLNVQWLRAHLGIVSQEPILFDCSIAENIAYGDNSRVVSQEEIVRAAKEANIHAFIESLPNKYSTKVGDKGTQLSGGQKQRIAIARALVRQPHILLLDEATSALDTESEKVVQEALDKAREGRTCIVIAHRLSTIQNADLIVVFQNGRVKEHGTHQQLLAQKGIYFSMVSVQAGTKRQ
How it was run: (§1)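 Bidirectional transport measured over 1 h at 37 °C with 10 μM test compound (0.1% DMSO) in pH 7.4 HEPES-buffered HBSS across MDR1-transfected and wild-type MDCK monolayers, analysed by LC-MS/MS. Efflux ratio is B>A over A>B Papp; effective efflux ratio divides MDR1-MDCK ER by wild-type ER.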

[2] = system: wild-type (WT) MDCK cells; test: Wild-type MDCK permeability and efflux assay (Papp, efflux ratio); format: in vitro ADME; details: for Papp AB WT: A->B; for ER WT (Efflux Ratio): Papp B>A/Papp A>B
How it was run: as §1

[3] = molecular target: T2, human Arginine Vasopressin Receptor V2 (AVPR2) (Homo sapiens, UniProt P30518); test: Vasopressin V2 receptor antagonist assay (TR-FRET cAMP, 1321N1 cells); format: cell-based
T2 construct: host or cells: 1321N1 (cAMPZen V2 assay ready frozen cells)
T2 sequence (P30518 whole entry): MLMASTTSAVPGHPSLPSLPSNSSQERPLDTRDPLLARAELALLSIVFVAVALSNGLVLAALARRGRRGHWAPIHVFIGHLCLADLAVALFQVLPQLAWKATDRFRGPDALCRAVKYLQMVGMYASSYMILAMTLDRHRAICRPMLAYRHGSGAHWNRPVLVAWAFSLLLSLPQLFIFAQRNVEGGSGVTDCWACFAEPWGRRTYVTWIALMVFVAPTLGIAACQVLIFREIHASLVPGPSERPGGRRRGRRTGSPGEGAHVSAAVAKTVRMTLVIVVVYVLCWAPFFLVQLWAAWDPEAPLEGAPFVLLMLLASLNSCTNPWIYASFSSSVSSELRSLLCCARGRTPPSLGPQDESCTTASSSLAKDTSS

[4] = Wild-type MDCK permeability and efflux assay (Papp, efflux ratio); format: in vitro ADME; details: dog, pH 7.4, wild-type MDCK cells; for efflux ratio at 1 h, 10 μM: Papp B>A/Papp A>B, read-out: ER WT (Efflux Ratio)
How it was run: as §1

[5] = MDCK-MDR1, pH 7.4, ER(MDR1-MDCK)/ER(wild-type MDCK), read-out: EER (Effective Efflux Ratio)
[6] = MDCK-MDR1, pH 7.4, Papp B>A/Papp A>B, MDR1-MDCK cells, read-out: ER MDR1 (Efflux Ratio)

Row | SMILES | IC50 [3] | efflux ratio at 1 h, 10 μM [1, 5] | efflux ratio at 1 h, 10 μM [1, 6] | Papp A→B at 1 h, 10 μM ([1]; MDR1-MDCK cells) | Papp A→B at 1 h, 10 μM [4] | efflux ratio at 1 h, 10 μM [4] | Papp AB MDR1 ([1]; MDR1-MDCK cells) | EER (Effective Efflux Ratio) [1] | ER MDR1 (Efflux Ratio) ([1]; MDR1-MDCK cells) | Papp AB WT [2] | ER WT (Efflux Ratio) [2]
1 | CC1COc2cc(F)ccc2N1C(=O)N1CC2(C1)CN(c1ccc(F)cn1)C2 (single isomer, unassigned) [12-1-B] | 100 to 500 nM | – | – | – | – | – | ++++ (>20 (10^−6 cm/sec) is highly permeable (++++)) | +++ (>1 but <2 has moderate probability of being an efflux substrate (+++)) | ++++ (efflux ratio or effective efflux ratio of <1 has low probability of being an efflux substrate (++++)) | ++++ (>20 (10^−6 cm/sec) is highly permeable (++++)) | ++++ (efflux ratio or effective efflux ratio of <1 has low probability of being an efflux substrate (++++))
2 | Cc1cncc(N2CC3(CN(C(=O)N4c5ccc(F)cc5OCC4C)C3)C2)n1 (single isomer, unassigned) [20-2-B] | < 100 nM | – | – | – | – | – | ++++ (>20 (10^−6 cm/sec) is highly permeable (++++)) | +++ (>1 but <2 has moderate probability of being an efflux substrate (+++)) | +++ (>1 but <2 has moderate probability of being an efflux substrate (+++)) | ++++ (>20 (10^−6 cm/sec) is highly permeable (++++)) | ++++ (efflux ratio or effective efflux ratio of <1 has low probability of being an efflux substrate (++++))
3 | CC1COc2cc(Cl)ccc2N1C(=O)N1CC2(C1)CN(c1cc(C#N)ccn1)C2 (single isomer, unassigned) [20-6-B] | < 100 nM | – | – | – | – | – | ++++ (>20 (10^−6 cm/sec) is highly permeable (++++)) | ++++ (efflux ratio or effective efflux ratio of <1 has low probability of being an efflux substrate (++++)) | ++++ (efflux ratio or effective efflux ratio of <1 has low probability of being an efflux substrate (++++)) | ++++ (>20 (10^−6 cm/sec) is highly permeable (++++)) | ++++ (efflux ratio or effective efflux ratio of <1 has low probability of being an efflux substrate (++++))

More lines, main results first:

Row | IC50 [3] | efflux ratio at 1 h, 10 μM [1, 5] | efflux ratio at 1 h, 10 μM [1, 6] | Papp A→B at 1 h, 10 μM ([1]; MDR1-MDCK cells) | Papp A→B at 1 h, 10 μM [4] | efflux ratio at 1 h, 10 μM [4] | SMILES | Papp AB MDR1 ([1]; MDR1-MDCK cells) | EER (Effective Efflux Ratio) [1] | ER MDR1 (Efflux Ratio) ([1]; MDR1-MDCK cells) | Papp AB WT [2] | ER WT (Efflux Ratio) [2]
4 | < 100 nM | – | – | – | – | – | Cc1nc(N2CC3(CN(C(=O)N4c5ccc(Cl)cc5OCC4C)C3)C2)ncc1F (single isomer, unassigned) [20-7-B] | ++++ (>20 (10^−6 cm/sec) is highly permeable (++++)) | +++ (>1 but <2 has moderate probability of being an efflux substrate (+++)) | ++++ (efflux ratio or effective efflux ratio of <1 has low probability of being an efflux substrate (++++)) | ++++ (>20 (10^−6 cm/sec) is highly permeable (++++)) | ++++ (efflux ratio or effective efflux ratio of <1 has low probability of being an efflux substrate (++++))
5 | 500 to 1000 nM | < 1 | < 1 | > 20 ×10⁻⁶ cm/s | > 20 ×10⁻⁶ cm/s | < 1 | Cc1nccnc1N1CC2(CN(C(=O)N3c4ccc(Cl)cc4OCC3C)C2)C1 (stereo not drawn) [20-10] | – | – | – | – | –
6 | < 100 nM | < 1 | < 1 | > 20 ×10⁻⁶ cm/s | > 20 ×10⁻⁶ cm/s | < 1 | Cc1ccnc(N2CC3(CN(C(=O)N4c5ccc(Cl)cc5OCC4C)C3)C2)c1 (stereo not drawn) [20-11] | – | – | – | – | –
